Series [1] is described as follows: Mice weight under high-lipid diet, 3-week pharmaco-nutritional regimen. The format is in vivo. The conditions noted are these: after 3-week regimen; vs control regimen. The method, then:
(§1) 100 male mice C57 Black 6/J aged 5 weeks (January, France) were accommodated in individual cages in the pet center of the INRA center, Theix, in thermoregulated premises (20-22° C.) and submitted to alternating 12 hour-cycles of light and darkness. After a week of acclimatization under a <<control regimen>> (D12450B, Research Diet, USA), 20 mice continued this regimen for 11 weeks. The other 80 mice were fed with a ? high-lipid regimen ? (HL) (D12451, Research Diet, USA) for 8 weeks. The total calorie intake, in percentages, provided for both the <> and HL regimens 20% proteins and respectively, 70% and 35% carbohydrates and 10% and 45% lipids. […] The mice weight was measured every 2 weeks.

Series [2] is described as follows: Body composition measurement through Echo MRI (body fat, lean body mass). The series is classed as in vivo, mice. The conditions noted are these: for Total body fat vs control regimen (Echo MRI): day 80, vs mice under control regimen; for Body fat: difference with high-lipid diet alone (HL), mice, 3 weeks. How it is done:
as §1
Body fat and lean body mass of awake mice after 15 h fasting were quantified using nuclear magnetic resonance (Echo MRI, Houston, USA) at day 80 of the experiment.

The nature of series [3]: Organ and tissue weights at sacrifice (peri-epididymal adipose tissue, leg muscles, liver). Conditions: vs mice under control regimen. The format is in vivo. How it is done: as §1
(§2) Prior to being sacrificed, mice after 15 h fasting were anesthetized through barbital intraperitoneal injection (1.5 μl/g). Blood was collected in EDTA-containing specimen collectors before being centrifuged (12000 rpm, 4 min, room temperature). Plasma was thereafter collected, distributed in aliquots and frozen in liquid nitrogen, then stored at −80° C. The adipose peri-epididymal tissue, liver and leg triceps muscle (gastrocnemius muscle), tibialis and quadriceps muscles were weighted, frozen in liquid nitrogen, then stored at −80° C.

Series [4] can be described thus: Plasma dosages (non-esterified fatty acids, triglycerides, cholesterol, glucose). The format is in vivo, mice. Conditions: for Cholesterolemia compared to control mice: ANOVA p=0.01. The method, then: as §2, with “100 male mice C57 Black 6/J aged 5 weeks (January, France) were accommodated in individual cages in the pet center of the INRA center, Theix, in thermoregulated premises (20-22° C.) and submitted to alternating 12 hour-cycles of light and darkness. […] The mice weight was measured every 2 weeks. Prior” for “Prior”

A short description of series [5]: Glucose tolerance measurement (ipGTT test). The series is classed as in vivo, mice. Conditions: for Glucose tolerance: difference with high-lipid diet alone (HL), mice, 3 weeks; for Glucose tolerance compared to the control regimen: ipGTT, glucose 2 mg/g i.p., vs control. The method, then:
as §1
(§3) After a 3-week pharmaco-nutritional regimen, measurements of the insulin sensitivity and glucose tolerance were conducted respectively on 10 mice of each group after a fasting night. Insulin sensitivity measurement: basal glycemia was evaluated using a glucose meter (Glucotouch, Lifescan, USA) on blood droplets collected from the tail. An insulin dose of 0.75 mU/g of weight was administered through intraperitoneal injection and glycemia was evaluated 15, 30, 45, 60 and 120 minutes post injection. Glucose tolerance measurement: a glucose dose (2 mg/g of weight) was administered through intraperitoneal injection. Glycemia was evaluated as for the insulin sensitivity test before and 15, 30, 60 and 120 minutes post injection.
Glucose tolerance measurement (ipGTT test): glucose tolerance is defined as the ability for a mouse to normalize its glycemia when injecting glucose. It is evaluated through the calculation of the area under the curve of the glycemia evolution after an injection of glucose.

The nature of series [6]: Insulin sensitivity measurement (ipITT test). The conditions noted are these: for Insulin sensitivity: difference with high-lipid diet alone (HL), mice, 3 weeks. The series is classed as in vivo, mice. The method, then:
as §1, §3

The conditions of series [7]: taking statin in the long term; cited from earlier work.
The conditions of series [8]: conclusions of several clinical assays; cited from earlier work.
The mark [9] stands for this setting: difference with high-lipid diet alone (HL), mice, 3 weeks.

As for `NC(=O)NCCC[C@H](N)C(=O)O` [L-citrulline, L-Citrulline], the “Mice weight as compared to the controls” value in series [1] is recorded as “significantly higher”. In addition, in series [2], the “Total body fat vs control regimen (Echo MRI)” value is on record as “+100%” and the Body fat is given as −7%. The “Weight of peri-epididymal adipose tissue vs control regimen” value in series [3] was “doubled”. Moreover, in series [4] (setting [9]), the “Plasma levels: Non esterified fatty acids” value was −24% and the “Plasma levels: Triglycerides” value is recorded as −15%. Also, in series [4] (vs control mice), the “Plasma levels of non-esterified fatty acids compared to control mice” value is recorded as “at a similar level compared to the control mice”, the “Triglyceridemia compared to control mice” value is “bring triglyceridemia back to the level of that obtained in control mice” and the “Cholesterolemia compared to control mice” value was “significant increase in cholesterolemia”. For the same molecule, in series [5], the Glucose tolerance result is on record as “+7%” and the “Glucose tolerance compared to the control regimen” value is on record as “significant reduction of glucose tolerance”. Also, the Insulin sensitivity result in series [6] is on record as “+5%”. In addition, in series [6] (ipITT, insulin 0.75 mU/g i.p., vs control), the “Insulin sensitivity compared to controls” value is given as “tend to be less sensitive to insulin”.

On to `CC(C)c1c(C(=O)Nc2ccccc2)c(-c2ccccc2)c(-c2ccc(F)cc2)n1CC[C@@H](O)C[C@@H](O)CC(=O)O` [Statin, Atorvastatin], for which, in series [1], the “Mice weight as compared to the controls” value is given as “significantly higher”. Moreover, in series [2], the “Total body fat vs control regimen (Echo MRI)” value is reported as “+87%” and the Body fat is given as −13%. In addition, the “Weight of peri-epididymal adipose tissue vs control regimen” value in series [3] is “doubled”. Also, in series [4] (vs control mice), the “Triglyceridemia compared to control mice” value is “bring triglyceridemia back to the level of that obtained in control mice” and the “Cholesterolemia compared to control mice” value is “significant increase in cholesterolemia”. In addition, in series [5], the Glucose tolerance result is given as “+11%” and the “Glucose tolerance compared to the control regimen” value is “significant reduction of glucose tolerance”. For the same molecule, the Insulin sensitivity entry in series [6] is “+31%”. The “Influence on body fat” value in series [7] is “has not any positive influence on body fat”. Besides, the “Development of type 2 diabetes” value in series [8] was “would promote the development of type 2 diabetes”.

As for `CC(C)c1nc(N(C)S(C)(=O)=O)nc(-c2ccc(F)cc2)c1/C=C/[C@@H](O)C[C@@H](O)CC(=O)O` [rosuvastatin], the “Development of type 2 diabetes” value in series [8] is reported as “would promote the development of type 2 diabetes”.

These data come from US20150017203A1, “COMBINATION PRODUCT FOR TREATING EXCESS WEIGHT AND/OR FOR IMPROVING THE FIGURE” (INSTITUT NATIONAL DE LA RECHERCHE AGRONOMIQUE - INRA, priority 2012, published 2015).
